Experimental data taken from ChEMBL document CHEMBL4316608, “Artemisinin-indole and artemisinin-imidazole hybrids: Synthesis, cytotoxic evaluation and reversal effects on multidrug resistance in MCF-7/ADR cells” (Bioorg Med Chem Lett, 2019).

Key:
CCRF-CEM = test: Cytotoxicity against human CCRF-CEM cells by XTT assay; type: functional, cell-based
ADR5000 cell line = test: Cytotoxicity against human CEM/ADR5000 cells by XTT assay; type: functional, cell-based
MCF7 = test: Antiproliferative activity against human MCF7 cells measured after 48 hrs by MTT assay; type: functional, cell-based; details: MCF7, 48 h
A549 = test: Antiproliferative activity against human A549 cells measured after 48 hrs by MTT assay; type: functional, cell-based; details: A549, 48 h
HepG2 = test: Antiproliferative activity against human HepG2 cells measured after 48 hrs by MTT assay; type: functional, cell-based; details: HepG2, 48 h
MDA-MB-231 = test: Antiproliferative activity against human MDA-MB-231 cells measured after 48 hrs by MTT assay; type: functional, cell-based; details: MDA-MB-231, 48 h
L02 = test: Cytotoxicity against human L02 cells measured after 48 hrs by MTT assay; type: cell-based; details: L02, 48 h
[1] = Toxicity in human MCF7 cells assessed as inhibition of cell proliferation at 5 uM measured after 48 hrs by MTT assay; type: cell-based
NCI/ADR-RES = test: Potentiation of adriamycin-induced antiproliferative activity against human MCF7/ADR cells assessed as fold reduction in adriamycin IC50 at 5 uM measured after 48 hrs by MTT assay; type: functional

| SMILES | IC50 (CCRF-CEM) [µM] | IC50 (ADR5000 cell line) [µM] | IC50 (MCF7) [µM] | IC50 (A549) [µM] | IC50 (HepG2) [µM] | IC50 (MDA-MB-231) [µM] | IC50 (L02) [µM] | inhibition at 48 h, 5 µM [1] [%] | fold change (FC) (NCI/ADR-RES) |
| --- | --- | --- | --- | --- | --- | --- | --- | --- | --- |
| C[C@@H]1CC[C@@H]2[C@]34OO[C@](C)(CC[C@@H]13)O[C@H]4OC[C@]2(C)O | 156 | 90 |  |  |  |  |  |  |  |
| C[C@H]1[C@H](OC(=O)CCC(=O)OCCCCn2cnc(C#N)c2C#N)O[C@@H]2O[C@@]3(C)CC[C@H]4[C@H](C)CC[C@@H]1[C@@]24OO3 |  |  | 15.2 | 17.9 | 32.3 | 50.8 | 42.9 | 11.2 | 4.1 |
| C[C@H]1[C@H](OC(=O)CCC(=O)OCCCCn2cc(C#N)nc2Cl)O[C@@H]2O[C@@]3(C)CC[C@H]4[C@H](C)CC[C@@H]1[C@@]24OO3 |  |  | 13.6 | 23.3 | 40.2 | > 100 | 52.3 | 16.6 | 11.17 |
| C[C@H]1[C@H](OC(=O)CCC(=O)OCCCn2ccnc2[N+](=O)[O-])O[C@@H]2O[C@@]3(C)CC[C@H]4[C@H](C)CC[C@@H]1[C@@]24OO3 |  |  | 12.9 | 20.9 | 39.3 | > 100 | 46.4 | 22.3 | 16.69 |
| C[C@@H]1CC[C@H]2[C@@H](C)C(OC(=O)c3c[nH]c4ccccc34)O[C@@H]3O[C@@]4(C)CC[C@@H]1[C@]32OO4 (some centres undefined) |  |  | 6.78 | 12.9 | 15.2 | 58.9 | 42.6 | 18.9 | 95.85 |
| C[C@H]1[C@H](OC(=O)CCC(=O)OCCCCn2cnc([N+](=O)[O-])c2)O[C@@H]2O[C@@]3(C)CC[C@H]4[C@H](C)CC[C@@H]1[C@@]24OO3 |  |  | 15.4 | 25.8 | 30.2 | 57 | 77.5 | 20.2 | 26.06 |
| C[C@H]1[C@H](OC(=O)CCC(=O)OCCn2ccnc2[N+](=O)[O-])O[C@@H]2O[C@@]3(C)CC[C@H]4[C@H](C)CC[C@@H]1[C@@]24OO3 |  |  | 16.4 | 14 | 23.7 | 39.4 | 50.2 | 13.5 | 27.09 |
| C[C@H]1[C@H](OC(=O)CCC(=O)OCCn2cnc(C#N)c2C#N)O[C@@H]2O[C@@]3(C)CC[C@H]4[C@H](C)CC[C@@H]1[C@@]24OO3 |  |  | 10.8 | 12.4 | 25.6 | > 100 | 49.1 | 13.7 | 5.41 |
| C[C@H]1[C@H](OC(=O)CCC(=O)OCCn2cnc([N+](=O)[O-])c2)O[C@@H]2O[C@@]3(C)CC[C@H]4[C@H](C)CC[C@@H]1[C@@]24OO3 |  |  | 14 | 12.7 | 34.9 | 82.3 | 56.2 | 7.78 | 43.48 |
| C[C@@H]1CC[C@H]2[C@@H](C)C(OC(=O)/C=C/c3cc4ccccc4[nH]3)O[C@@H]3O[C@@]4(C)CC[C@@H]1[C@]32OO4 (some centres undefined) |  |  | > 50 | > 50 | > 50 | > 100 | > 100 | 5.38 | 61.05 |
| C[C@H]1[C@H](OC(=O)CCC(=O)OCCn2cc(C#N)nc2Cl)O[C@@H]2O[C@@]3(C)CC[C@H]4[C@H](C)CC[C@@H]1[C@@]24OO3 |  |  | 17.5 | 20.7 | 44.3 | 66.4 | 61.2 | 21.3 | 9.24 |
| C[C@H]1[C@H](OC(=O)CCC(=O)OCCCCn2ccnc2[N+](=O)[O-])O[C@@H]2O[C@@]3(C)CC[C@H]4[C@H](C)CC[C@@H]1[C@@]24OO3 |  |  | 9.78 | 16.5 | 21.2 | 85.2 | 45.7 | 19.8 | 14.71 |
